# Tested on: SD rats
# Test: 2-week repeated oral dose toxicity study
# Assay type: in vivo
# Conditions: for A / G ratio / ALP / ALT / AST / Albumin / B / C ratio / BUN / CHO / CK / CRE / Glucose / K^+ / LDH / Na^+ / T-Bil / TG (triglyceride) / TP: serum
# Experimental: KMS88009 was orally administered once a day by gavage for 14 consecutive days at dose level of 0 (vehicle), 100, 300 and 1,000 mg/kg (n = 5 per group). […] Organs were collected at necropsy; adrenal, kidney, thymus, spleen, heart, lung, liver, testis and brain. The absolute organ weights were measured and the organs-to-body weight ratios were calculated. Blood samples for hematological evaluation were collected from vein of animals under ether anesthesia. Food was withheld overnight before necropsy and blood collections. EDTA was used as an anticoagulant for hematology samples. White blood cell (WBC), red blood cell (RBC), hemoglobin concentration (HGB), hematocrit (HCT), mean corpuscular volume (MCV), mean corpuscular hemoglobin (MCH), mean corpuscular hemoglobin concentration (MCHC), cell hemoglobin concentration mean (CHCM), cell hemoglobin (CH), red cell distribution width (RDW), hemoglobin distribution width (HDW), platelet count (PLT), mean platelet volume (MPV) and reticulocyte were measured by a hematological autoanalyzer (ADVIA 120, Bayer, USA). To get the serum for biochemical analyses, blood samples in a separation tube were centrifuged at 4,000 rpm for 10 min on the day of necropsy. The serum was kept frozen at -70°C until analysis. Sodium citrate was used as an anticoagulant for biochemical analyses. Serum biochemical parameters including aspartate aminotransferase (AST), alanine aminotransferase (ALT), alkaline phosphatase (ALP), total bilirubin (T-Bil), albumin, total protein (TP), albumin/globulin ratio (A/G ratio), glucose, total cholesterol (CHO), triglyceride (TG), lactate dehydrogenase (LDH), creatine kinase (CK), blood urea nitrogen (BUN), creatinine (CRE), blood urea nitrogen/creatinine ratio (B/C ratio), Na^+, K^+ and Cl^- were evaluated by an autoanalyzer (Shimadzu CL-7200, Shimadzu Co., Japan).
# All data for single and 2-week repeated oral dose toxicity studies were expressed as the mean ± SD Difference between control and treated groups were evaluated with one-way analysis of variance (ANOVA) followed by Dunnett's test. Value P<0.05 was taken as being statistically significant. Statistical analyses were performed using GraphPad Prism software (USA).
# [1] = rats PO 1,000 mg/kg/day, 2 weeks
smiles,measurement,setting,value
"COc1ccc2cc(C=Cc3ccc(N(C)C)cc3)oc2c1 [KMS88009, 6-methoxy-2-(4-dimethylaminostyryl) benzofuran]",Body weight,"rats PO 300 mg/kg/day, day 11",317.6 ± 17.0 g
same,Body weight,"rats PO 300 mg/kg/day, day 14",338.5 ± 16.9 g
same,Abnormal gross findings of necropsy (changed animals / total),[1],0 / 5
same,Basophils,[1],0.01 ± 0.01 x10^3/μL
same,Body Weight (at necropsy),[1],319.932 ± 12.441 g
same,Brain weight,[1],1.922 ± 0.009 g
same,CH,[1],20.0 ± 0.5 pg
same,CHCM,[1],34.1 ± 0.4 g/dL
same,Eosinophils,[1],0.05 ± 0.04 x10^3/μL
same,HDW,[1],2.29 ± 0.09 g/dL
same,Heart weight,[1],1.074 ± 0.065 g
same,Hematocrit,[1],42.1 ± 2.2%
same,Hemoglobin,[1],14.0 ± 0.8 g/dL
same,LUC,[1],0.06 ± 0.04 x10^3/μL
same,Left adrenal weight,[1],0.025 ± 0.004 g
same,Left kidney weight,[1],1.342 ± 0.067 g
same,Left testis weight,[1],1.366 ± 0.053 g
same,Liver weight,[1],11.173 ± 0.202 g
same,Lung weight,[1],1.279 ± 0.094 g
same,Lympocytes,[1],6.50 ± 3.11 x10^3/μL
same,MCH,[1],19.6 ± 0.5 pg
same,MCHC,[1],33.3 ± 0.6 g/dL
same,MCV,[1],59.0 ± 1.0 fL
same,MPV,[1],7.58 ± 0.3 fL
same,Monocytes,[1],0.13 ± 0.05 x10^3/μL
same,Mortality (dead animals / total number of animals),[1],0 / 5
same,Neutrophils,[1],1.08 ± 0.46 x10^3/μL
same,Platelet,[1],1325 ± 141 x10^3/μL
same,RBC,[1],7.14 ± 0.27 x10^6/μL
same,RDW,[1],12.1 ± 0.2%
same,Rate body weight / brain,[1],0.601 ± 0.024%
same,Rate body weight / heart,[1],0.336 ± 0.014%
same,Rate body weight / left adrenal,[1],0.008 ± 0.001%
same,Rate body weight / left kidney,[1],0.420 ± 0.025%
same,Rate body weight / left testis,[1],0.427 ± 0.025%
same,Rate body weight / liver,[1],3.495 ± 0.093%
same,Rate body weight / lung,[1],0.400 ± 0.030%
same,Rate body weight / right adrenal,[1],0.008 ± 0.001%
same,Rate body weight / right kidney,[1],0.418 ± 0.030%
same,Rate body weight / right testis,[1],0.427 ± 0.021%
same,Rate body weight / spleen,[1],0.234 ± 0.031%
same,Rate body weight / thymus,[1],0.194 ± 0.017%
same,Retic,[1],307.4 ± 32.8 x10^3/μL
same,Right adrenal weight,[1],0.026 ± 0.003 g
same,Right kidney weight,[1],1.334 ± 0.067 g
same,Right testis weight,[1],1.365 ± 0.036 g
same,Spleen weight,[1],0.749 ± 0.112 g
same,Symptomatic signs,[1],-
same,Thymus weight,[1],0.621 ± 0.073 g
same,WBC,[1],7.83 ± 3.64 x10^3/μL
same,Body weight,"rats PO 1,000 mg/kg/day, day 1",228.3 ± 6.5 g
same,Body weight,"rats PO 1,000 mg/kg/day, day 4",251.1 ± 8.6 g
same,Body weight,"rats PO 1,000 mg/kg/day, day 8",296.4 ± 14.2 g
same,Body weight,"rats PO 1,000 mg/kg/day, day 11",323.0 ± 15.8 g
same,Body weight,"rats PO 1,000 mg/kg/day, day 14",346.6 ± 16.1 g
same,A / G ratio,"rats PO 100 mg/kg/day, 2 weeks",0.82 ± 0.08
same,ALP,"rats PO 100 mg/kg/day, 2 weeks",723.4 ± 40.3 IU/L
same,ALT,"rats PO 100 mg/kg/day, 2 weeks",37.3 ± 6.2 IU/L
same,AST,"rats PO 100 mg/kg/day, 2 weeks",152.3 ± 47.1 IU/L
same,Albumin,"rats PO 100 mg/kg/day, 2 weeks",2.52 ± 0.18 g/dL
same,B / C ratio,"rats PO 100 mg/kg/day, 2 weeks",28.3 ± 6.1
same,BUN,"rats PO 100 mg/kg/day, 2 weeks",12.2 ± 1.5 mg/dL
same,CHO,"rats PO 100 mg/kg/day, 2 weeks",79.4 ± 15.2 mg/dL
same,CK,"rats PO 100 mg/kg/day, 2 weeks",258.4 ± 54.3 IU/L
same,CRE,"rats PO 100 mg/kg/day, 2 weeks",0.44 ± 0.05 mg/dL
same,Glucose,"rats PO 100 mg/kg/day, 2 weeks",159.2 ± 23.5 mg/dL
same,K^+,"rats PO 100 mg/kg/day, 2 weeks",4.58 ± 0.43 mmol/L
same,LDH,"rats PO 100 mg/kg/day, 2 weeks",168.0 ± 36.4 IU/L
same,Na^+,"rats PO 100 mg/kg/day, 2 weeks",140.5 ± 1.2 mmol/L
same,T-Bil,"rats PO 100 mg/kg/day, 2 weeks",0.01 ± 0.01 mg/dL
same,TG (triglyceride),"rats PO 100 mg/kg/day, 2 weeks",47.0 ± 29.5 mg/dL
same,TP,"rats PO 100 mg/kg/day, 2 weeks",5.66 ± 0.17 g/dL
same,A / G ratio,"rats PO 300 mg/kg/day, 2 weeks",0.77 ± 0.06
same,ALP,"rats PO 300 mg/kg/day, 2 weeks",755.6 ± 165.7 IU/L
same,ALT,"rats PO 300 mg/kg/day, 2 weeks",32.9 ± 4.7 IU/L
same,AST,"rats PO 300 mg/kg/day, 2 weeks",149.2 ± 24.3 IU/L
same,Albumin,"rats PO 300 mg/kg/day, 2 weeks",2.4 ± 0.00 g/dL
same,B / C ratio,"rats PO 300 mg/kg/day, 2 weeks",29.6 ± 8.1
same,BUN,"rats PO 300 mg/kg/day, 2 weeks",12.3 ± 2.8 mg/dL
same,CHO,"rats PO 300 mg/kg/day, 2 weeks",81.8 ± 11.6 mg/dL
same,CK,"rats PO 300 mg/kg/day, 2 weeks",222.0 ± 56.7 IU/L
same,CRE,"rats PO 300 mg/kg/day, 2 weeks",0.42 ± 0.04 mg/dL
same,Glucose,"rats PO 300 mg/kg/day, 2 weeks",148.0 ± 23.5 mg/dL
same,K^+,"rats PO 300 mg/kg/day, 2 weeks",4.73 ± 0.26 mmol/L
same,LDH,"rats PO 300 mg/kg/day, 2 weeks",127.2 ± 47.0 IU/L
same,Na^+,"rats PO 300 mg/kg/day, 2 weeks",139.8 ± 1.8 mmol/L
same,T-Bil,"rats PO 300 mg/kg/day, 2 weeks",0.02 ± 0.01 mg/dL
same,TG (triglyceride),"rats PO 300 mg/kg/day, 2 weeks",29.4 ± 7.2 mg/dL
same,TP,"rats PO 300 mg/kg/day, 2 weeks",5.56 ± 0.23 g/dL
same,A / G ratio,[1],0.76 ± 0.04
same,ALP,[1],736.0 ± 109.1 IU/L
same,ALT,[1],32.7 ± 7.8 IU/L
same,AST,[1],162.0 ± 19.1 IU/L
same,Albumin,[1],2.44 ± 0.05 g/dL
same,B / C ratio,[1],29.7 ± 2.0
same,BUN,[1],11.9 ± 0.8 mg/dL
same,CHO,[1],80.4 ± 18.2 mg/dL
same,CK,[1],260.2 ± 62.0 IU/L
same,CRE,[1],0.4 ± 0.00 mg/dL
same,Glucose,[1],141.3 ± 15.6 mg/dL
same,K^+,[1],4.87 ± 0.22 mmol/L
same,LDH,[1],126.0 ± 53.9 IU/L
same,Na^+,[1],140.1 ± 1.2 mmol/L
same,T-Bil,[1],0.02 ± 0.01 mg/dL
same,TG (triglyceride),[1],30.8 ± 7.7 mg/dL
same,TP,[1],5.62 ± 0.19 g/dL

# — paper PMC3997483, “Aminostyrylbenzofuran Directly Reduces Oligomeric Amyloid-β and Reverses Cognitive Deficits in Alzheimer Transgenic Mice” (PLoS ONE, 2014)
